From PubChem BioAssay (NCI)
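96-well plates; 48 h exposure; 5 concentrations. Endpoints by linear interpolation between flanking doses. Not reached: highest tested concentration assigned. TGI is the concentration that stops growth completely.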

Assays:
Experiment in all cases: NCI-60 cell line screen, 48 h
T-47D breast = system: T-47D breast
COLO 205 colon = system: COLO 205 colon
BT-549 breast = system: BT-549 breast
MALME-3M melanoma = system: MALME-3M melanoma
TK-10 renal = system: TK-10 renal
MCF7 breast = system: MCF7 breast
MOLT-4 leukemia = system: MOLT-4 leukemia
HCT-116 colon = system: HCT-116 colon
HOP-92 NSCLC = system: HOP-92 NSCLC
SF-539 CNS = system: SF-539 CNS
NCI-H460 lung = system: NCI-H460 lung
M14 melanoma = system: M14 melanoma
OVCAR-8 ovarian = system: OVCAR-8 ovarian
OVCAR-3 ovarian = system: OVCAR-3 ovarian
SW-620 colon = system: SW-620 colon
U251 CNS = system: U251 CNS
HT29 colon = system: HT29 colon
MDA-MB-435 = system: MDA-MB-435
NCI-H23 lung = system: NCI-H23 lung
HL-60(TB) leukemia = system: HL-60(TB) leukemia
HCC-2998 colon = system: HCC-2998 colon
UO-31 renal = system: UO-31 renal
RPMI-8226 leukemia = system: RPMI-8226 leukemia
LOX IMVI melanoma = system: LOX IMVI melanoma
786-0 renal = system: 786-0 renal
SK-MEL-2 melanoma = system: SK-MEL-2 melanoma
HOP-62 NSCLC = system: HOP-62 NSCLC
ACHN renal = system: ACHN renal
NCI-H226 lung = system: NCI-H226 lung
HCT-15 colon = system: HCT-15 colon
IGROV1 ovarian = system: IGROV1 ovarian
OVCAR-5 ovarian = system: OVCAR-5 ovarian
SF-295 CNS = system: SF-295 CNS
HS 578T breast = system: HS 578T breast
KM12 colon = system: KM12 colon
OVCAR-4 ovarian = system: OVCAR-4 ovarian
SR leukemia = system: SR leukemia
SK-MEL-5 melanoma = system: SK-MEL-5 melanoma
MDA-N = system: MDA-N
MDA-MB-231 breast = system: MDA-MB-231 breast
NCI-H522 lung = system: NCI-H522 lung
UACC-257 melanoma = system: UACC-257 melanoma
SK-OV-3 ovarian = system: SK-OV-3 ovarian
DU-145 prostate = system: DU-145 prostate
SF-268 CNS = system: SF-268 CNS
UACC-62 melanoma = system: UACC-62 melanoma
SNB-19 CNS = system: SNB-19 CNS
SNB-75 CNS = system: SNB-75 CNS
NCI/ADR-RES ovarian = system: NCI/ADR-RES ovarian
SN12C renal = system: SN12C renal
RXF 393 renal = system: RXF 393 renal
A549 NSCLC = system: A549 NSCLC
EKVX NSCLC = system: EKVX NSCLC
CCRF-CEM leukemia = system: CCRF-CEM leukemia
PC-3 prostate = system: PC-3 prostate
SK-MEL-28 melanoma = system: SK-MEL-28 melanoma
CAKI-1 renal = system: CAKI-1 renal
K-562 leukemia = system: K-562 leukemia
A498 renal = system: A498 renal

Measured: TGI

N#CC(NCCc1ccccc1)c1ccccc1 (configuration not stated)
not listed: K-562 leukemia | A498 renal
> 100 µM: all other assays above

CCOC(=O)c1nc2cc(C(F)(F)F)ccc2nc1Nc1ccc(OC)c(OC)c1
not listed: U251 CNS | SK-MEL-2 melanoma | NCI-H226 lung | OVCAR-4 ovarian
> 100 µM: all other assays above

CC(=O)NC(Cc1cnc[nH]1)C(=O)N1CCCC1C(N)=O (configuration not stated)
not listed: SF-539 CNS | SK-MEL-2 melanoma | UACC-257 melanoma | A498 renal
> 100 µM: all other assays above
